Measured values from BindingDB's records for doi:10.1111/cbdd.12489 (Zhejiang University, 2015).

Molecular target: RAC-alpha serine/threonine-protein kinase (Homo sapiens, UniProt P31749)
Experiment: Akt1 Inhibitory Activity Assay
Settings: pH 7.5; 25 °C
Protocol: In vitro kinase assays were carried out using HTScan PKB/Akt1 Kinase Assay kit (Cell Signaling Technology). […] Then, PKB/Akt1 kinase activity was analyzed according to the manufacturer's instructions.

RAC-alpha serine/threonine-protein kinase, sequence (P31749 whole entry): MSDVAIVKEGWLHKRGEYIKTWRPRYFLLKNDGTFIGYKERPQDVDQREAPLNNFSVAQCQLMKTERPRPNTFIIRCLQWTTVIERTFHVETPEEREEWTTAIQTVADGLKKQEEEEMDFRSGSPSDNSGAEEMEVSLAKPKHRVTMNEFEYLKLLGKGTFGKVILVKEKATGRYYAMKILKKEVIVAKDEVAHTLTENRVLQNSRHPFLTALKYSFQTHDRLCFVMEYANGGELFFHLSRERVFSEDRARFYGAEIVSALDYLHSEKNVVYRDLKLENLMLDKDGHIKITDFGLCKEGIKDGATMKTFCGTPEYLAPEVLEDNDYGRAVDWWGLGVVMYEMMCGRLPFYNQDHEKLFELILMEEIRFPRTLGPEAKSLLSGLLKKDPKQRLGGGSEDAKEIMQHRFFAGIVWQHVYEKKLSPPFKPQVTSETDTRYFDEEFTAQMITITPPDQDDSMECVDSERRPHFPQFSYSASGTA

IC50 [µM] | SMILES
6.2 | O=c1c(O)c(-c2ccc(O)c(O)c2)oc2cc(O)c(CN3CCOCC3)c(O)c12 [2-(3,4-Dihydroxyphenyl)-3,5,7-trihydroxy-6-(morpholinomethyl)-4H-chromen-4-one (3a)]
5.5 | CN(Cc1ccccc1)Cc1c(O)cc2oc(-c3ccc(O)c(O)c3)c(O)c(=O)c2c1O [6-((Benzyl(methyl)amino)methyl)-2-(3,4-dihydroxyphenyl)-3,5,7-trihydroxy-4H-chromen-4-one (3c)]
